Measurements published in the NIST ThermoML archive (doi:10.1016/j.fluid.2018.05.028).

Test: xn = mol fraction of the nth substance listed
Conditions: 101 kPa, Liquid; for speed of sound: Single path-length method; for mass density: Vibrating tube method; for viscosity: Concentric cylinders viscometry

CCCCCCCCCCCCCCCC [hexadecane] + CCCO
Conditions | mass density [kg/m3] | speed of sound [m/s] | viscosity [mPa·s]
318.15 K, x2 = 0 | 756.05 | – | –
318.15 K, x2 = 0.1 | 755.74 | – | –
318.15 K, x2 = 0.2 | 756.07 | – | –
318.15 K, x2 = 0.3 | 756.67 | – | –
318.15 K, x2 = 0.4 | 757.58 | – | –
318.15 K, x2 = 0.5 | 758.84 | 1224 | –
318.15 K, x2 = 0.6 | 760.62 | 1213.3 | –
318.15 K, x2 = 0.7 | 763.14 | 1201.1 | –
318.15 K, x2 = 0.8 | 766.85 | 1185.1 | –
318.15 K, x2 = 0.9 | 772.59 | 1164.4 | –
323.15 K, x2 = 0 | 752.61 | 1247.1 | 1.823
323.15 K, x2 = 0.1 | 752.19 | 1237.9 | 1.708
323.15 K, x2 = 0.2 | 752.45 | 1230.5 | 1.639
323.15 K, x2 = 0.3 | 753 | 1222.9 | 1.587
323.15 K, x2 = 0.4 | 753.84 | 1214.7 | 1.537
323.15 K, x2 = 0.5 | 755.05 | 1205.6 | 1.484
323.15 K, x2 = 0.6 | 756.76 | 1195.1 | 1.432
323.15 K, x2 = 0.7 | 759.22 | 1182.9 | 1.375
323.15 K, x2 = 0.8 | 762.85 | 1167.2 | 1.308
323.15 K, x2 = 0.9 | 768.51 | 1147 | 1.223
328.15 K, x2 = 0 | 749.18 | 1229.3 | 1.671
328.15 K, x2 = 0.1 | 748.64 | 1220 | 1.565
328.15 K, x2 = 0.2 | 748.83 | 1212.4 | 1.499
328.15 K, x2 = 0.3 | 749.32 | 1204.7 | 1.452
328.15 K, x2 = 0.4 | 750.09 | 1196.5 | 1.403
328.15 K, x2 = 0.5 | 751.23 | 1187.4 | 1.352
328.15 K, x2 = 0.6 | 752.86 | 1176.8 | 1.303
328.15 K, x2 = 0.7 | 755.25 | 1164.8 | 1.248
328.15 K, x2 = 0.8 | 758.8 | 1149.4 | 1.186
328.15 K, x2 = 0.9 | 764.37 | 1129.5 | 1.106
333.15 K, x2 = 0 | 745.74 | 1211.8 | 1.537
333.15 K, x2 = 0.1 | 745.09 | 1202.2 | 1.438
333.15 K, x2 = 0.2 | 745.2 | 1194.5 | 1.375
333.15 K, x2 = 0.3 | 745.61 | 1186.7 | 1.331
333.15 K, x2 = 0.4 | 746.31 | 1178.5 | 1.284
333.15 K, x2 = 0.5 | 747.38 | 1169.2 | 1.237
333.15 K, x2 = 0.6 | 748.93 | 1158.7 | 1.19
333.15 K, x2 = 0.7 | 751.24 | 1146.8 | 1.138
333.15 K, x2 = 0.8 | 754.7 | 1131.5 | 1.079
333.15 K, x2 = 0.9 | 760.17 | 1112.1 | 1.004
338.15 K, x2 = 0 | 742.31 | 1194.4 | 1.421
338.15 K, x2 = 0.1 | 741.53 | 1184.6 | 1.329
338.15 K, x2 = 0.2 | 741.55 | 1176.7 | 1.266
338.15 K, x2 = 0.3 | 741.89 | 1168.8 | 1.226
338.15 K, x2 = 0.4 | 742.52 | 1160.5 | 1.179
338.15 K, x2 = 0.5 | 743.5 | 1151.2 | 1.134
338.15 K, x2 = 0.6 | 744.97 | 1140.7 | 1.087
338.15 K, x2 = 0.7 | 747.19 | 1128.8 | 1.039
338.15 K, x2 = 0.8 | 750.55 | 1113.7 | 0.9835
338.15 K, x2 = 0.9 | 755.91 | 1094.6 | 0.9119
343.15 K, x2 = 0 | 738.88 | 1177.5 | 1.316
343.15 K, x2 = 0.1 | 737.98 | 1167.2 | 1.23
343.15 K, x2 = 0.2 | 737.89 | 1159.1 | 1.168
343.15 K, x2 = 0.3 | 738.15 | 1151.1 | 1.131
343.15 K, x2 = 0.4 | 738.69 | 1142.7 | 1.085
343.15 K, x2 = 0.5 | 739.59 | 1133.3 | 1.042
343.15 K, x2 = 0.6 | 740.96 | 1122.7 | 0.9894
343.15 K, x2 = 0.7 | 743.08 | 1110.9 | 0.9461
343.15 K, x2 = 0.8 | 746.33 | 1095.9 | 0.8985
343.15 K, x2 = 0.9 | 751.58 | 1077.1 | 0.8305
